# Measurements as given in a melting point compilation (Tetko et al.).
row,SMILES,melting point
1,CC(=O)Oc1ccc(C(=O)Nc2ccccc2)cc1,161 to 163 °C
2,CN(c1ccc(O)cc1)S(=O)(=O)c1ccc(Cl)cc1,154 to 156 °C
3,Nc1c(Cl)nc(-c2ccccc2)nc1Cl,140 to 142 °C
4,O=C(O)CCS(=O)(=O)Cc1cccc(Br)c1,156 to 158 °C
5,Cc1cc(NC(=O)c2cccc(F)c2)sc1C(=O)O,211 to 213 °C
6,CC(C)(CN)C(N)=O,72 to 74 °C
7,CN1CCN(c2cccc(C#N)n2)CC1,59 to 61 °C
8,COc1ccccc1NC(=O)Nc1cc(N)ccc1OC,167 to 169 °C
9,O=C1NC(=O)C(c2ccc(Cl)cc2Cl)N1 (configuration not stated),179 to 181 °C
10,O=S1(=O)CCC(CCBr)C1 (configuration not stated),56 to 58 °C
11,CCCC1(CCC)NC(=O)NC1=O,205 to 207 °C
12,O=c1cc(CCl)nc2ccc(Cl)cn12,149 to 151 °C
13,O=c1oc2ccccc2o1,116 to 118 °C
14,COc1ccc(Br)cc1C(N)C(=O)O (configuration not stated),163 to 165 °C
15,Cc1nc(Cc2nnc(S)o2)cs1,194 to 196 °C
16,COC(=O)C(Cc1c[nH]c2ccccc12)NC(=O)c1ccc2ccccc2c1 (configuration not stated),182 to 184 °C
17,O=C(c1ccccc1O)N1CCCCC1,133 to 135 °C
18,Cc1cccc(-c2nc(CCl)no2)c1,44 to 46 °C
19,CN1CCN(C2=c3ccccc3=Nc3ccc(Cl)cc3N2)CC1,184 to 186 °C
20,CNc1ccc([N+](=O)[O-])cc1C(=O)O,261 to 263 °C
21,NC(=NO)c1ccc2c(c1)OCO2,164 to 166 °C
22,Cc1cc(SC(C)(C)C)ccc1N,69 to 71 °C
23,COc1ccc(-c2nn(Cc3ccccc3)cc2C(=O)O)cc1OC,110 to 114 °C
24,O=C1C=CC(=O)N1c1ccccc1Sc1ccc(Cl)cc1,54 to 56 °C
25,Cc1ccc(C)n1-c1ccc(CN)cc1,61 to 63 °C

row,SMILES,melting point
1,N#CCN1CCC(=O)CC1,91 to 93 °C
2,O=C(O)C(Sc1ccccc1Cl)c1ccccc1 (configuration not stated),116 to 118 °C
3,O=S1(=O)CCNc2ccccc21,139 to 141 °C
4,O=C1COc2cccc(S(=O)(=O)Cl)c2N1,96 to 98 °C
5,NNC(=O)C1Cc2ccccc2CN1Cc1ccccc1 (configuration not stated),128 to 130 °C
6,CCNC(=O)c1cccnc1Cl,47 to 49 °C
7,c1cnc2c(NC3CCC3)cccc2c1,48 to 50 °C
8,Cc1nn(-c2ccccc2)c(C)c1C(=O)C(=O)O,206 to 208 °C
9,NC(=O)C1CNCCO1 (configuration not stated),158 to 160 °C
10,Sc1nc2ncccn2n1,234 to 236 °C
11,NC(=O)N1CCc2ccccc21,160 to 162 °C
12,Cc1cc(C(=O)O)cc(S(=O)(=O)N2CCC(C)CC2)c1C,176 to 178 °C
13,N#CCC(=O)c1ccc(F)c(Cl)c1,59 to 61 °C
14,OCc1cc(Br)cs1,30 to 32 °C
15,Cc1nn(C)c(C)c1CCC(=O)O,137 to 139 °C
16,O=[N+]([O-])c1c(F)cccc1S(=O)(=O)Cl,52 to 54 °C
17,CCOc1ccc(Br)cc1S(=O)(=O)Nc1ccc(N)cc1,77 to 79 °C
18,CCCc1onc(C)c1C(=O)O,107 to 109 °C
19,N#CC1(O)CCOCC1,43 to 45 °C
20,O=C1NC(=O)C2(CCSC2)N1 (configuration not stated),243 to 245 °C
21,Cc1nc2nccc(C(=O)O)n2n1,226 to 228 °C
22,NC(=S)NC1CCCCCC1,89 to 91 °C
23,Sc1nnnn1C1CCCC1,123 to 125 °C
24,OCc1cc(Cl)c2c(c1)OCO2,101 to 105 °C
25,O=C(O)CCN1C(=O)C(=O)c2ccc(F)cc21,179 to 181 °C

row,SMILES,melting point
1,Cc1nnc(-c2ccc(Br)c(F)c2)o1,138 to 140 °C
2,CS(=O)(=O)CCC(NC(=O)c1ccccc1Cl)C(=O)O (configuration not stated),159 to 161 °C
3,CCN1N=C(C(=O)O)CC1=O,256 to 258 °C
4,O=C(O)c1cc2c(c(S(=O)(=O)Cl)c1)CCC2,197 to 199 °C
5,Clc1nnc(-c2ccccc2)s1,82 to 84 °C
6,Cn1c(=O)[nH]c2cc(C(=O)O)ccc21,391 to 393 °C
7,CC(=O)Nc1ccc(C)c(S(=O)(=O)Cl)c1,95 to 97 °C
8,Cc1ccccc1Nc1nc(Cl)c(C=O)s1,153 to 155 °C
9,O=C(O)Cc1csc(NC(=O)c2ccccc2F)n1,204 to 206 °C
10,CC1CCC(NS(=O)(=O)CC(=O)O)CC1 (configuration not stated),116 to 118 °C
11,c1cc(-c2ncc[nH]2)ccn1,208 to 210 °C
12,O=C(O)CCNC(=O)c1ccco1,135 to 139 °C
13,COC(=O)c1ccc(C)c(S(=O)(=O)Cl)c1,45 to 47 °C
14,O=S(=O)(Cl)c1c[nH]c2ncccc12,187 to 189 °C
15,O=c1[nH]cnc2c(Br)cccc12,317 to 319 °C
16,Cc1nccn1-c1ccc(N)cn1,160 to 162 °C
17,O=C(O)C=Cc1ccccc1OC(F)F,164 to 166 °C
18,O=C(O)c1ccc(Oc2ccc(F)c(F)c2)cc1,156 to 158 °C
19,CC(O)C1CCCNC1 (configuration not stated),52 to 54 °C
20,Cc1cc(C#N)ccc1S(=O)(=O)Cl,64 to 66 °C
21,O=C(O)CC1=C(c2cccs2)N2CCN=C2S1,220 to 222 °C
22,Cc1nc(-c2ccncc2)nc(Cl)c1C,112 to 114 °C
23,Cc1cc(C(=O)CCl)c(C)n1Cc1cccs1,83 to 85 °C
24,Cc1cc(C(=O)O)c(C)n1Cc1ccc(S(N)(=O)=O)cc1,198 to 202 °C
25,Cc1csc(NC(C)C(=O)O)n1 (configuration not stated),189 to 191 °C

row,SMILES,melting point
1,NS(=O)(=O)C1CCCNC1 (configuration not stated),119 to 121 °C
2,CC(=O)NCc1ccc(Br)cc1,114 to 116 °C
3,COc1ccc2c(c1)OCC(C#N)=C2,93 to 95 °C
4,NNC(=O)Nc1ccc(S(N)(=O)=O)cc1,216 to 218 °C
5,CC1CC(C)(C)CC2(C1)NC(=O)NC2=O (configuration not stated),273 to 275 °C
6,CC(=O)NCc1cccc(C(=O)O)c1,166 to 168 °C
7,Nc1cc(Cl)c(Cl)nc1N,149 to 151 °C
8,Cc1ccccc1-c1cc(N)n(C)n1,97 to 99 °C
9,Cc1nc(-c2cc(C(=O)O)co2)cs1,186 to 188 °C
10,CCCCCn1cc(C(=O)O)c2ccccc21,97 to 99 °C
11,Nc1cccnn1,169 to 171 °C
12,N#Cc1c(N)cc(N)nc1S,349 to 351 °C
13,Cc1ccc(CCC(=O)O)o1,58 to 60 °C
14,Cc1ccc(NC2C=CS(=O)(=O)C2)cc1 (configuration not stated),115 to 117 °C
15,Cc1c(N)cccc1N1CCOC1=O,140 to 142 °C
16,Cc1nc(Cl)c(C)c(NN)n1,141 to 143 °C
17,Nc1c(Br)ccc(Br)c1C(=O)O,145 to 147 °C
18,Cc1cc(N)ccc1-n1cnnn1,135 to 137 °C
19,COC(=O)c1c(C)[nH]c(C(=O)O)c1C,206 to 208 °C
20,O=C(O)c1cn(C2CCCCC2)nn1,163 to 165 °C
21,NCC1(O)Cc2ccccc2C1,64 to 66 °C
22,Fc1ccc2c(C3=CCNCC3)c[nH]c2c1,173 to 175 °C
23,Cc1ccc(CCC(=O)O)cc1Cl,84 to 86 °C
24,O=C(CC(F)(F)F)c1ccc(F)cc1F,46 to 48 °C
25,O=[N+]([O-])c1ccc(C2NCCS2)cc1 (configuration not stated),124 to 126 °C

row,SMILES,melting point
1,Nc1ccnc(CO)c1,99 to 101 °C
2,O=C(O)CCS(=O)(=O)C(F)(F)F,104 to 106 °C
3,N#Cc1ccc2c(c1)CCCC2=O,132 to 134 °C
4,O=C(CCl)Nc1ccc2[nH]c(=O)[nH]c2c1,230 to 232 °C
5,COc1cc(C=C2CCc3c2nc2ccccc2c3C(=O)O)cc(OC)c1OC,246 to 248 °C
6,CNC(=O)C(Br)Cc1ccccc1 (configuration not stated),103 to 105 °C
7,NC(=O)c1ccccc1OCc1cccc(C(=O)O)c1,238 to 240 °C
8,Cc1c(C(=O)O)c(=O)oc2ccc(Br)cc12,179 to 181 °C
9,CCOC(=O)C(=O)c1cc(Br)ccc1OC,69 to 71 °C
10,CC1=C(C(=O)Nc2ccccc2)C2(CCCCC2)C(C#N)=C(S)N1,238 to 240 °C
11,O=C(O)c1cc2ccc(Cl)cc2[nH]1,242 to 244 °C
12,CN(C(=O)OC(C)(C)C)c1ccc(O)cc1,133 to 135 °C
13,COc1ccc2[nH]nc(N)c2c1,159 to 161 °C
14,Cc1nn(CC(C)C)c(C)c1CCC(=O)O,80 to 90 °C
15,COC(=O)c1cc2ccccc2cc1N,99 to 101 °C
16,Nc1nc(CN2CCN(c3nccs3)CC2)cs1,169 to 171 °C
17,O=C(O)c1ccc(O)c(S(=O)(=O)Cl)c1,189 to 191 °C
18,CCc1sc(C(=O)NNC(=O)CCl)cc1C,160 to 162 °C
19,N#Cc1ccc(NCCC(N)=O)c(F)c1,156 to 158 °C
20,O=c1[nH]c(-c2cccnc2)no1,234 to 236 °C
21,CCC(C)NC(=O)c1cccc(CN)c1 (configuration not stated),95 to 97 °C
22,COc1ccc(S(=O)(=O)Cl)c2ccccc12,95 to 97 °C
23,NC(=O)Cc1ccc(N)cc1,157 to 159 °C
24,O=C(O)/C=C/c1nc2ccccc2o1,223 to 225 °C
25,Nc1ncc(Cc2ccc(Cl)cc2Cl)s1,109 to 111 °C

row,SMILES,melting point
1,CCCCCCCOc1ccc(C=O)cc1OCC,43 to 47 °C
2,CSc1ccc(C(=O)CCl)cc1NC(C)=O,98 to 102 °C
3,ClC1=Nc2c(cnn2-c2ccccc2)CN1,189 to 191 °C
4,CC1Oc2ccc(Br)cc2NC1=O (configuration not stated),189 to 191 °C
5,NC1(C(=O)O)CCOC1 (configuration not stated),244 to 246 °C
6,Cc1ncc(C=O)n1-c1ccc(Br)cc1,110 to 112 °C
7,COCCN(C)S(N)(=O)=O,34 to 36 °C
8,CCOc1ccc(C2(O)CCCC2)cc1,88 to 90 °C
9,Cc1cc(C(N)=O)c2ccccc2n1,246 to 248 °C
10,O=C(O)CCc1cc(Cl)ccc1Br,83 to 85 °C
11,COc1ccc2[nH]c(C(=O)O)cc2c1OC(F)F,231 to 233 °C
12,O=C(CCl)NC(Cc1c[nH]c2ccccc12)C(=O)O (configuration not stated),153 to 155 °C
13,Cc1nc2ccccn2c1CN1CCNCC1,163 to 165 °C
14,COc1ccccc1NC(=O)c1ccc(N)cc1,162 to 164 °C
15,ClCc1cc(Br)c2c(c1)OCO2,100 to 102 °C
16,C#CCNC(=O)c1ccccc1N,96 to 98 °C
17,CCOc1ccc(S(=O)(=O)N(CC)CC)cc1N,119 to 121 °C
18,CCN(CC)S(=O)(=O)c1ccc(CCC(=O)O)cc1,150 to 152 °C
19,NS(=O)(=O)CC1CCC1,97 to 99 °C
20,N#CCCn1cc(C(N)=O)cn1,179 to 181 °C
21,O=C(O)CNS(=O)(=O)c1cccc2c1N=S=N2,270 to 272 °C
22,CCOC(=O)c1csc(NC2CC2)n1,89 to 91 °C
